This assay in a line: antitumor properties (studies mentioned, no method described). The following applies: qualitative statement compared with girolline; no test system, dose or model printed.

In the case of `NC[C@@H](Cl)[C@H](O)c1c[nH]c(N)n1` (racemic) [racémique thréo, amino-3 (amino-2 1H-imidazolyl-4)-1 chloro-2 propanol-1-(1RS,2RS)], the propriétés antitumorales entry was “conserve les propriétés antitumorales remarquables de la girolline”.

For the molecule `NC[C@H](Cl)[C@H](O)c1c[nH]c(N)n1` (racemic) [racémique érythro], the propriétés antitumorales entry is recorded as “totalement inactifs”.

For the origin of these results see patent EP0397567A1, “Antitumor substance, process for its preparation and pharmaceutical compositions containing it” (RHONE-POULENC SANTE, priority 1989, dated 1990).
